In ChEMBL document CHEMBL5154827, “Discovery of S-217622, a Noncovalent Oral SARS-CoV-2 3CL Protease Inhibitor Clinical Candidate for Treating COVID-19” (J Med Chem, 2022):

Key:
[1] = Elimination half life in Sprague-Dawley rat at 0.5 micromol/mL/kg, iv measured for 3 to 360 mins by LC-MS/MS analysis; format: ADME, organism-based; conditions: in vivo, time 3-360 min, dose 0.5 µmol/kg, read-out: LambdaZ (converted)
NIH3T3 = test: Phototoxicity in BALB/c mouse 3T3 fibroblast incubated for 1 hr by measuring neutral-red extraction from cells; format: toxicity, cell-based; conditions: nih3t3, 1 h
[2] = Antiviral activity against HCoV-OC43 infected in MRC5 cells assessed as inhibition of viral cytopathic effect measured after 42 hrs by real-time PCR method; format: functional, cell-based, Human coronavirus OC43; conditions: Betacoronavirus 1, OC43, MRC5, 42 h
Chymotrypsin [3] = target: T1, Chymotrypsin (Homo sapiens, UniProt Q99895+P17538+P40313+Q6GPI1); test: Inhibition of human pancreas chymotrypsin using Suc-Ala-Ala-Pro-Phe-AMC as substrate preincubated for 15 mins incubated followed by addition of substrate measured after 60 mins by measuring amount of AMC formed by spectrofluorimetric method; format: protein assay
[4] = target: Human immunodeficiency virus type 1 protease (Human immunodeficiency virus 1) (UniProt Q72874); test: Inhibition of HIV-1 protease at 100 uM
Chymotrypsin [5] = target: T1, Chymotrypsin; test: Inhibition of human pancreas chymotrypsin at 100 uM using Suc-Ala-Ala-Pro-Phe-AMC as substrate preincubated for 15 mins incubated followed by addition of substrate measured after 60 mins by measuring amount of AMC formed by spectrofluorimetric method; format: protein assay; conditions: time 75.0 min

With CNC(=O)Cn1c(=O)[nH]/c(=N\c2ccc(OC(F)F)cc2C)n(Cc2cc(F)c(F)c(F)c2)c1=O as the compound, how does the half-life [1] read?
Its half-life is 2.1 h.

For Cn1cnc(Cn2c(=O)[nH]/c(=N\c3cc4cn(C)nc4cc3Cl)n(Cc3cc(F)c(F)cc3F)c2=O)n1, which Activity (NIH3T3) is on record?
The Activity was “Non-Toxic”.

What about the EC50 [2] of the same compound?
The EC50 was 74 nM.

And the IC50 (Chymotrypsin [3])?
Its IC50 is greater than 100000 nM.

What about the inhibition [4] of the same compound?
The inhibition was less than 50%.

And the inhibition (Chymotrypsin [5])?
The inhibition was less than 50%.

For CNC(=O)Cn1c(=O)[nH]/c(=N\c2cc3cn(C)nc3cc2Cl)n(Cc2cc(F)c(F)c(F)c2)c1=O, which half-life [1] is on record?
Its half-life is 1.3 h.
